Laboratory results from patent US20060009465A1, “Treatment of sleep disorders using sleep target modulators” (priority 2002, published 2006).
“Also recorded” adds a separate entry of the source.

Tested on: Male Wistar rats
Experiment: SCORE-2000 sleep-wake assay (EEG/EMG, locomotor activity, body temperature)
[1] = Example 2, 10 mg/kg IP at CT-18
[2] = Example 3, male Wistar rats, 30 mg/kg
[3] = Example 2, 3 mg/kg and 10 mg/kg IP at CT-5

Question: With O=c1n(CCCN2CCN(c3cccc(Cl)c3)CC2)nc2ccccn12 [Trazodone] as the molecule, how does the REM Sleep Inhibition [1] read?
Answer: without evidence

Question: What about the “adverse thermoregulatory events post-treatment” value [1] of the same molecule?
Answer: no evidence

Question: What about the “disproportional motor inhibition / locomotor activity changes” value [1] of the same molecule?
Answer: without evidence; also recorded: no evidence

Question: What about the nonREM sleep time [1] of the same molecule?
Answer: increased nonREM sleep time; also recorded: markedly and significantly increased

Question: What about the rebound insomnia [1] of the same molecule?
Answer: without evidence; also recorded: no evidence

Question: And the “Body Temp (CV) Adverse Event” value [2]?
Answer: Yes

Question: And the “Disproportional Motor Inhibition” value [2]?
Answer: None

Question: What about the “Initial Sleep Interference” value [2] of the same molecule?
Answer: initially interferes with sleep; also recorded: significant initial sleep interference

Question: What about the “REM Sleep Inhibition” value [2] of the same molecule?
Answer: inhibits REM sleep; also recorded: significant REM sleep inhibition

Question: And the “rebound insomnia” value [2]?
Answer: None

Question: Clc1cccc(N2CCNCC2)c1 [m-CPP, meta-chlorophenylpiperazine] was tested. Which “interference with sleep, time post-treatment” value [3] did it give?
Answer: 2 to 3 h

Question: And the rebound hypersomnolence [3]?
Answer: followed by a rebound hypersomnolence

Question: What about the “reduction in nonREM sleep time, lasting post-treatment” value [3] of the same molecule?
Answer: 2 to 3 h

Question: With Cl.O=C(O)C1CN(CCCn2nc3ccccn3c2=O)CCN1c1cccc(Cl)c1 (centres unmarked) [HY-2724] as the molecule, how does the “increasing sleep and sleep consolidation” value (Example 4, male Wistar rats, 30 mg/kg) read?
Answer: ineffective
